Tests used:
[1] = test system: barnyardgrass; experiment: Test C preemergence; type: in vivo, Echinochloa crusgalli; conditions: for Barnyardgrass plant response rating: preemergence; for Plant response rating, Barnyardgrass: Preemergence
How it was run: (§1)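 Seeds in loam–sand blend received preemergence directed soil spray of test chemicals in non-phytotoxic solvent with surfactant; postemergence treatment was applied at one- to two-leaf stage (2–10 cm). After 10 days in greenhouse, injury rated visually versus untreated controls, 0 (no effect) to 100 (complete control).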

[2] = test system: blackgrass; experiment: Test C preemergence; type: in vivo, Alopecurus myosuroides; conditions: for Blackgrass plant response rating: preemergence; for Plant response rating, Blackgrass: Preemergence
How it was run: as §1

[3] = test system: corn; experiment: Test C preemergence; type: in vivo, Zea mays; conditions: for Corn plant response rating: preemergence; for Plant response rating, Corn: Preemergence
How it was run: as §1

[4] = test system: green foxtail; experiment: Test C preemergence; type: in vivo, Setaria viridis; conditions: for Foxtail, Green plant response rating: preemergence; for Plant response rating, Foxtail, Green: Preemergence
How it was run: as §1

[5] = test system: kochia; experiment: Test C preemergence; type: in vivo, Bassia scoparia; conditions: for Kochia plant response rating: preemergence; for Plant response rating, Kochia: Preemergence
How it was run: as §1

[6] = test system: oat, wild; experiment: Test C preemergence; type: in vivo, Avena fatua; conditions: for Oat, Wild plant response rating: preemergence; for Plant response rating, Oat, Wild: Preemergence
How it was run: as §1

[7] = test system: pigweed, palmer; experiment: Test C preemergence; type: in vivo, Amaranthus palmeri; conditions: for Pigweed, Palmer plant response rating: preemergence; for Plant response rating, Pigweed, Palmer: Preemergence
How it was run: as §1

[8] = test system: ragweed; experiment: Test C preemergence; type: in vivo, Ambrosia artemisiifolia; conditions: for Ragweed plant response rating: preemergence; for Plant response rating, Ragweed: Preemergence
How it was run: as §1

[9] = test system: ryegrass, Italian; experiment: Test C preemergence; type: in vivo, Lolium multiflorum; conditions: for Ryegrass, Italian plant response rating: preemergence; for Plant response rating, Ryegrass, Italian: Preemergence
How it was run: as §1

[10] = test system: soybean; experiment: Test C preemergence; type: in vivo, Glycine max; conditions: for Soybean plant response rating: preemergence; for Plant response rating, Soybean: Preemergence
How it was run: as §1

[11] = test system: wheat; experiment: Test C preemergence; type: in vivo, Triticum aestivum; conditions: for Wheat plant response rating: preemergence; for Plant response rating, Wheat: Preemergence
How it was run: as §1

[12] = test system: barnyardgrass; experiment: Test C postemergence; type: in vivo, Echinochloa crusgalli; conditions: 10 days
How it was run: as §1

[13] = test system: blackgrass; experiment: Test C postemergence; type: in vivo, Alopecurus myosuroides; conditions: 10 days
How it was run: as §1

[14] = test system: corn; experiment: Test C postemergence; type: in vivo, Zea mays; conditions: 10 days
How it was run: as §1

[15] = test system: green foxtail; experiment: Test C postemergence; type: in vivo, Setaria viridis; conditions: 10 days
How it was run: as §1

[16] = test system: kochia; experiment: Test C postemergence; type: in vivo, Bassia scoparia; conditions: 10 days
How it was run: as §1

[17] = test system: oat, wild; experiment: Test C postemergence; type: in vivo, Avena fatua; conditions: 10 days
How it was run: as §1

[18] = test system: pigweed, palmer; experiment: Test C postemergence; type: in vivo, Amaranthus palmeri; conditions: 10 days
How it was run: as §1

[19] = test system: ragweed; experiment: Test C postemergence; type: in vivo, Ambrosia artemisiifolia; conditions: 10 days
How it was run: as §1

[20] = test system: ryegrass, Italian; experiment: Test C postemergence; type: in vivo, Lolium multiflorum; conditions: 10 days
How it was run: as §1

[21] = test system: soybean; experiment: Test C postemergence; type: in vivo, Glycine max; conditions: 10 days
How it was run: as §1

[22] = test system: wheat; experiment: Test C postemergence; type: in vivo, Triticum aestivum; conditions: 10 days
How it was run: as §1

[23] = test system: galium; experiment: Test C postemergence; type: in vivo, Galium aparine; conditions: 10 days
How it was run: as §1

[24] = test system: horseweed; experiment: Test C postemergence; type: in vivo, Erigeron canadensis; conditions: 10 days
How it was run: as §1

[25] = test system: barnyardgrass; experiment: Test D flooded paddy test; type: in vivo, Echinochloa crus-galli; conditions: 250 g ai/ha, applied to paddy water, visual rating after 13 to 14 days, scale 0 to 100 (0 no effect, 100 complete control)
How it was run: (§2)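 2-leaf plants; flood 3 cm above soil; compound dosed into paddy water; greenhouse 13–14 d; visual rating vs controls, 0–100 (100 = complete control); dash = not tested.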

[26] = test system: ducksalad; experiment: Test D flooded paddy test; type: in vivo, Heteranthera limosa; conditions: 250 g ai/ha, applied to paddy water, visual rating after 13 to 14 days, scale 0 to 100 (0 no effect, 100 complete control)
How it was run: as §2

[27] = test system: rice; experiment: Test D flooded paddy test; type: in vivo, Oryza sativa; conditions: 250 g ai/ha, applied to paddy water, visual rating after 13 to 14 days, scale 0 to 100 (0 no effect, 100 complete control)
How it was run: as §2

[28] = test system: sedge, umbrella; experiment: Test D flooded paddy test; type: in vivo, Cyperus difformis; conditions: 250 g ai/ha, applied to paddy water, visual rating after 13 to 14 days, scale 0 to 100 (0 no effect, 100 complete control)
How it was run: as §2

[29] = 500 g ai/ha, 0 to 100 scale (0 no effect, 100 complete control)
[30] = 125 g ai/ha, 0 to 100 scale, 0 no effect, 100 complete control
[31] = 500 g ai/ha, postemergence, 0 to 100 scale (0 no effect, 100 complete control)
[32] = Postemergence, 125 g ai/ha, 0 to 100 scale (0 no effect, 100 complete control)
[33] = 500 g ai/ha, visual rating after 10 days, 0 to 100 scale (0 no effect, 100 complete control)
[34] = Test C, 125 g ai/ha, 0 to 100 scale (0 no effect, 100 complete control)
[35] = 125 g ai/ha, postemergence, 0 to 100 scale, 0 no effect, 100 complete control
[36] = Postemergence, 500 g ai/ha, visual 0 to 100 scale (0 no effect, 100 complete control)

Cc1cccc2c1OC(C(F)(F)F)CN2C(=O)c1cccc(-n2cnc(C(C)(C)C)n2)c1 (stereo not shown) [Compound 347]
Barnyardgrass plant response rating [1, 29]: 100
Plant response rating, Barnyardgrass [1, 30]: 20
Blackgrass plant response rating [2, 29]: 30
Plant response rating, Blackgrass [2, 30]: 10
Corn plant response rating [3, 29]: 10
Plant response rating, Corn [3, 30]: 0
Foxtail, Green plant response rating [4, 29]: 100
Plant response rating, Foxtail, Green [4, 30]: 90
Kochia plant response rating [5, 29]: 60
Plant response rating, Kochia [5, 30]: 50
Oat, Wild plant response rating [6, 29]: 70
Plant response rating, Oat, Wild [6, 30]: 60
Pigweed, Palmer plant response rating [7, 29]: 70
Plant response rating, Pigweed, Palmer [7, 30]: 80
Ragweed plant response rating [8, 29]: 30
Plant response rating, Ragweed [8, 30]: 0
Ryegrass, Italian plant response rating [9, 29]: 100
Plant response rating, Ryegrass, Italian [9, 30]: 100
Soybean plant response rating [10, 29]: 30
Plant response rating, Soybean [10, 30]: 30
Wheat plant response rating [11, 29]: 40
Plant response rating, Wheat [11, 30]: 20
Plant response rating, Barnyardgrass [12, 31]: 20
Plant response rating, Barnyardgrass [12, 32]: 10
Plant response rating, Blackgrass [13, 31]: 60
Plant response rating, Blackgrass [13, 32]: 10
Plant response rating, Corn [14, 31]: 10
Plant response rating, Corn [14, 32]: 10
Plant response rating, Foxtail, Green [15, 31]: 60
Plant response rating, Foxtail, Green [15, 32]: 20
Plant response rating, Kochia [16, 31]: 70
Plant response rating, Kochia [16, 32]: 50
Plant response rating, Oat, Wild [17, 31]: 10
Plant response rating, Oat, Wild [17, 32]: 10
Plant response rating, Pigweed, Palmer [18, 31]: 80
Plant response rating, Pigweed, Palmer [18, 32]: 80
Plant response rating, Ragweed [19, 31]: 50
Plant response rating, Ragweed [19, 32]: 20
Plant response rating, Ryegrass, Italian [20, 31]: 30
Plant response rating, Ryegrass, Italian [20, 32]: 20
Plant response rating, Soybean [21, 31]: 100
Plant response rating, Soybean [21, 32]: 100
Plant response rating, Wheat [22, 31]: 10
Plant response rating, Wheat [22, 32]: 10
Plant response rating, Galium [23, 31]: 80
Plant response rating, Galium [23, 32]: 90
Plant response rating, Horseweed [24, 31]: 20
Plant response rating, Horseweed [24, 32]: 0
Plant response rating, Barnyardgrass (Flood) [25]: 0
Plant response rating, Ducksalad (Flood) [26]: 0
Plant response rating, Rice (Flood) [27]: 0
Plant response rating, Sedge, Umbrella (Flood) [28]: 0

Cc1ccc(-n2cnc(C3CCC3)n2)cc1C(=O)N1CC(C(F)(F)F)Oc2c(Cl)cccc21 (single isomer, unassigned) [Compound 219]
Plant response rating, Barnyardgrass [1, 33]: 100
Barnyardgrass plant response rating [1, 34]: 80
Plant response rating, Blackgrass [2, 33]: 40
Blackgrass plant response rating [2, 34]: 0
Plant response rating, Corn [3, 33]: 20
Corn plant response rating [3, 34]: 10
Plant response rating, Foxtail, Green [4, 33]: 100
Foxtail, Green plant response rating [4, 34]: 100
Plant response rating, Kochia [5, 33]: 100
Kochia plant response rating [5, 34]: 90
Plant response rating, Oat, Wild [6, 33]: 70
Oat, Wild plant response rating [6, 34]: 30
Plant response rating, Pigweed, Palmer [7, 33]: 100
Pigweed, Palmer plant response rating [7, 34]: 100
Plant response rating, Ragweed [8, 33]: 70
Ragweed plant response rating [8, 34]: 30
Plant response rating, Ryegrass, Italian [9, 33]: 80
Ryegrass, Italian plant response rating [9, 34]: 90
Plant response rating, Soybean [10, 33]: 90
Soybean plant response rating [10, 34]: 70
Plant response rating, Wheat [11, 33]: 50
Wheat plant response rating [11, 34]: 20
Plant response rating, Barnyardgrass [12, 35]: 70
Plant response rating, Barnyardgrass [12, 36]: 100
Plant response rating, Blackgrass [13, 35]: 40
Plant response rating, Blackgrass [13, 36]: 50
Plant response rating, Corn [14, 35]: 20
Plant response rating, Corn [14, 36]: 30
Plant response rating, Foxtail, Green [15, 35]: 80
Plant response rating, Foxtail, Green [15, 36]: 90
Plant response rating, Kochia [16, 35]: 80
Plant response rating, Kochia [16, 36]: 90
Plant response rating, Oat, Wild [17, 35]: 10
Plant response rating, Oat, Wild [17, 36]: 40
Plant response rating, Pigweed, Palmer [18, 35]: 100
Plant response rating, Pigweed, Palmer [18, 36]: 100
Plant response rating, Ragweed [19, 35]: 50
Plant response rating, Ragweed [19, 36]: 90
Plant response rating, Ryegrass, Italian [20, 35]: 50
Plant response rating, Ryegrass, Italian [20, 36]: 70
Plant response rating, Soybean [21, 35]: 100
Plant response rating, Soybean [21, 36]: 100
Plant response rating, Wheat [22, 35]: 20
Plant response rating, Wheat [22, 36]: 40
Plant response rating, Galium [23, 35]: 100
Plant response rating, Galium [23, 36]: 100
Plant response rating, Horseweed [24, 36]: 70
Plant response rating, Barnyardgrass (Flood) [25]: 10
Plant response rating, Ducksalad (Flood) [26]: 50
Plant response rating, Rice (Flood) [27]: 0
Plant response rating, Sedge, Umbrella (Flood) [28]: 50

Cc1cccc2c1O[C@@H](C)CN2C(=O)c1cccc(-n2cnc(C#N)c2)c1 [Compound 233]
Plant response rating, Barnyardgrass [1, 33]: 60
Barnyardgrass plant response rating [1, 34]: 0
Plant response rating, Blackgrass [2, 33]: 30
Blackgrass plant response rating [2, 34]: 10
Plant response rating, Corn [3, 33]: 20
Corn plant response rating [3, 34]: 0
Plant response rating, Foxtail, Green [4, 33]: 80
Foxtail, Green plant response rating [4, 34]: 0
Plant response rating, Kochia [5, 33]: 0
Kochia plant response rating [5, 34]: 0
Plant response rating, Oat, Wild [6, 33]: 0
Oat, Wild plant response rating [6, 34]: 0
Plant response rating, Pigweed, Palmer [7, 33]: 0
Pigweed, Palmer plant response rating [7, 34]: 0
Plant response rating, Ragweed [8, 33]: 70
Ragweed plant response rating [8, 34]: 0
Plant response rating, Ryegrass, Italian [9, 33]: 60
Ryegrass, Italian plant response rating [9, 34]: 10
Plant response rating, Soybean [10, 33]: 10
Soybean plant response rating [10, 34]: 0
Plant response rating, Wheat [11, 33]: 0
Wheat plant response rating [11, 34]: 0
Plant response rating, Barnyardgrass [12, 35]: 10
Plant response rating, Barnyardgrass [12, 36]: 20
Plant response rating, Blackgrass [13, 35]: 0
Plant response rating, Blackgrass [13, 36]: 40
Plant response rating, Corn [14, 35]: 0
Plant response rating, Corn [14, 36]: 20
Plant response rating, Foxtail, Green [15, 35]: 20
Plant response rating, Foxtail, Green [15, 36]: 20
Plant response rating, Kochia [16, 35]: 0
Plant response rating, Kochia [16, 36]: 10
Plant response rating, Oat, Wild [17, 35]: 0
Plant response rating, Oat, Wild [17, 36]: 20
Plant response rating, Pigweed, Palmer [18, 35]: 0
Plant response rating, Pigweed, Palmer [18, 36]: 10
Plant response rating, Ragweed [19, 35]: 0
Plant response rating, Ragweed [19, 36]: 20
Plant response rating, Ryegrass, Italian [20, 35]: 0
Plant response rating, Ryegrass, Italian [20, 36]: 60
Plant response rating, Soybean [21, 35]: 70
Plant response rating, Soybean [21, 36]: 80
Plant response rating, Wheat [22, 35]: 10
Plant response rating, Wheat [22, 36]: 10
Plant response rating, Galium [23, 35]: 50
Plant response rating, Horseweed [24, 35]: 0
Plant response rating, Horseweed [24, 36]: 0
Plant response rating, Barnyardgrass (Flood) [25]: 0
Plant response rating, Ducksalad (Flood) [26]: 0
Plant response rating, Rice (Flood) [27]: 0
Plant response rating, Sedge, Umbrella (Flood) [28]: 0
